Experimental data from publication PMC11855827, “High-Throughput Screening of Five Compound Libraries for Anthelmintic Activity and Toxicity Leads to the Discovery of Two Flavonoid Compounds” (International Journal of Molecular Sciences, 2025).
Where “and” joins values, the source holds several entries; their conditions need not be identical. Equal values may be shown once. Read-outs that look alike come from different tables or passages of the source.

Assays:
C. elegans [1] = test system: C. elegans
C. elegans [2] = assay: microbe, parasite or virus in culture; settings: Caenorhabditis elegans
[3] = Table S2, C. elegans SS assay, 110 μM, averages of 4 data points
[4] = 0 h, read-out: Percentage of motility inhibition 0 h, Table S2, C. elegans SS assay, 110 μM, 0 h, averages of 4 data points
[5] = 24 h, read-out: Percentage of motility inhibition 24 h, Table S2, C. elegans SS assay, 110 μM, 24 h, averages of 4 data points
[6] = 0 h, read-out: Percentage of motility inhibition 0 h

SMILES | inhibition at 110 µM (C. elegans [2]; [4]) [%] | inhibition at 110 µM (C. elegans [2]; [5]) [%] | further results
CC[C@@]1(O)C(=O)OCc2c1cc1n(c2=O)Cc2cc3ccccc3nc2-1 [Camptothecin] | 25 | 6 | Percentage of motility inhibition 24 h (C. elegans [1]; [3]): 3%
O=c1c(-c2ccc(O)cc2)coc2cc(O)ccc12 [Daidzein] |  | 14 | Percentage of motility inhibition 24 h (C. elegans [1]; [3]): 10%
CNCC(O)c1ccc(O)cc1 (stereo not drawn) [Synephrine] | 16 |  | Percentage of motility inhibition 24 h (C. elegans [1]; [3]): 24%
CC1=C[C@]23C(=O)[C@@H](C=C(CO)[C@@H](O)[C@]2(O)[C@H]1O)[C@H]1[C@@H](C[C@H]3C)C1(C)C [Ingenol] |  | 19 | Percentage of motility inhibition 0 h (C. elegans [1]; [3]): 0% and 1%
Nc1ncnc2c1ncn2[C@@H]1O[C@H](CO)[C@@H](O)[C@@H]1O [Vidarabine] |  | 0 | Percentage of motility inhibition 0 h (C. elegans [1]; [3]): 4%
C[C@H]1[C@H](OC(=O)CCC(=O)O)O[C@@H]2O[C@@]3(C)CC[C@H]4[C@H](C)CC[C@@H]1[C@@]24OO3 [Artesunate] | 12 | 30 | Percentage of motility inhibition 0 h (C. elegans [1]; [3]): 21%; Percentage of motility inhibition 24 h (C. elegans [1]; [3]): 15%
O=C(O)[C@H]1O[C@@H](Oc2cc3oc(-c4ccccc4)cc(=O)c3c(O)c2O)[C@H](O)[C@@H](O)[C@@H]1O [Baicalin] |  | 15 | Percentage of motility inhibition 24 h (C. elegans [1]; 110 µM): 24%
C[C@H]1C(=O)O[C@@H]2CCN3CC=C(COC(=O)[C@](C)(O)[C@]1(C)O)[C@H]23 [Monocrotaline] |  | 12 | Percentage of motility inhibition 0 h (C. elegans [1]; [3]): 2%; Percentage of motility inhibition 24 h (C. elegans [1]; [3]): 15%
C[C@H]1COC2(CCN(c3nc(=O)c4cc(C(F)(F)F)cc([N+](=O)[O-])c4s3)CC2)O1 [BTZ043] | 0 | 5 | 
O=C1c2c(O)cc(O)cc2O[C@H](c2ccc(O)cc2)[C@H]1O [Dihydrokaempferol] | 2 | 0 | 
NNC(=O)c1ccncc1 [Isoniazid] | 26 | 27 | 
C/C=C(/C)C(=O)O[C@H]1C(C)=C[C@]23C(=O)[C@@H](C=C(CO)[C@@H](O)[C@]12O)[C@H]1[C@@H](C[C@H]3C)C1(C)C [Ingenol Mebutate] | 1 | 0 | 
O=c1cc(-c2ccccc2)oc2cc(O)cc(O)c12 [Chrysin] | 15 | 0 | 
CC[C@@]1(O)C(=O)OCc2c1cc1n(c2=O)Cc2cc3c(N)cccc3nc2-1 [9‐Aminocamptothecin] | 0 | 2 | 
CC12CCC(C1)C(C)(C)C2O (stereo not drawn) [Fenchyl alcohol] | 2 | 0 | 
COC[C@@]12CC[C@H](OC)[C@]34C(C([C@H](OC)[C@H]13)[C@]1(OC(C)=O)[C@H]3[C@@H](OC(=O)c5ccccc5)[C@](O)(C[C@H]34)[C@@H](OC)[C@@H]1O)N(C)C2 [Hypaconitine] | 0 | 6 | 
C[C@H]1[C@H](C)CC[C@]2(C(=O)O)CC[C@]3(C)C(=CC[C@@H]4[C@@]5(C)CCC(=O)C(C)(C)[C@@H]5CC[C@]43C)[C@H]12 [Ursonic acid] |  |  | inhibition at 110 µM (C. elegans [2]; [6]): 18%; inhibition at 110 µM (C. elegans [2]; 24 h, read-out: Percentage of motility inhibition 24 h): 23%
CC(CC(=O)C[C@@H](C)[C@H]1CC(=O)[C@@]2(C)C3=C(C(=O)C[C@]12C)[C@@]1(C)CCC(=O)C(C)(C)[C@@H]1C[C@@H]3O)C(=O)O (stereo partly drawn) [Ganoderic acid D] | 0 | 21 | 
CC1(C)CC[C@]2(C(=O)O)CC[C@]3(C)C(=CC[C@@H]4[C@@]5(C)CCC(=O)C(C)(C)[C@@H]5CC[C@]43C)[C@@H]2C1 [Oleanonic acid] |  |  | inhibition at 110 µM (C. elegans [2]; [6]): 15%
O=C1C[C@@H](c2ccc(O[C@@H]3O[C@H](CO)[C@@H](O)[C@H](O)[C@H]3O)cc2)Oc2cc(O)ccc21 [Liquiriti n] | 45 | 14 | 
CC(C)[C@@H]1CC[C@@H](C)CC1=O [Menthone] | 17 | 17 | 
C/C=C(/C)C(=O)O[C@H]1[C@H](O)[C@]2(COC(C)=O)[C@H](O)C[C@]3(C)C(=CC[C@@H]4[C@@]5(C)CC[C@H](O[C@@H]6O[C@H](C(=O)O)[C@@H](O[C@@H]7O[C@H](CO)[C@@H](O)[C@H](O)[C@H]7O)[C@H](O)[C@H]6O[C@@H]6O[C@H](CO)[C@@H](O)[C@H](O)[C@H]6O)[C@](C)(CO)[C@@H]5CC[C@]43C)[C@@H]2CC1(C)C [Isoescin IB] | 9 | 0 | 
N#C[C@H](O[C@@H]1O[C@H](CO[C@@H]2O[C@H](CO)[C@@H](O)[C@H](O)[C@H]2O)[C@@H](O)[C@H](O)[C@H]1O)c1ccccc1 [Amygdalin] | 13 | 0 | 
OC[C@@H](O)[C@@H](O)[C@H](O)[C@@H](O)CO [D-Sorbitol] | 0 | 7 | 
